In publication PMC8589421, “Impact of Type II LRRK2 inhibitors on signaling and mitophagy” (Biochemical Journal, 2021):

Experiments:
[1] = system: Rab10 phosphorylation; test: Rab10 phosphorylation in primary human neutrophils; format: cell-based; settings: primary human neutrophils from two donors, 45 min
Procedure: Cell extracts were mixed with a quarter of a volume of NuPage LDS Sample buffer 4× Invitrogen and heated at 95°C for 5 min. […] At the end of electrophoresis, proteins were electrophoretically transferred onto the nitrocellulose membrane (GE Healthcare, Amersham Protran Supported 0.45 µm NC) at 100 V for 90 min on ice in the transfer buffer (48 mM Tris–HCl and 39 mM glycine supplemented with 20% methanol). Transferred membrane was blocked with 5% (w/v) skim milk powder dissolved in TBS-T [20 mM Tris–HCl, pH 7.5, 150 mM NaCl and 0.1% (v/v) Tween 20] at room temperature for 1 h. The membrane was typically cropped into three pieces, namely the ‘top piece’ (from the top of the membrane to 75 kDa), the ‘middle piece’ (between 75 and 30 kDa) and the ‘bottom piece’ (from 30 kDa to the bottom of the membrane). All primary antibodies were used at 1 μg/ml final concentration and incubated in TBS-T containing 5% (by mass) bovine serum albumin with exception of α-tubulin and GAPDH antibodies that were diluted 1 : 5000 and 1 : 2000, respectively. The top piece was incubated with the indicated rabbit anti-LRRK2 phosphorylation site antibody multiplexed with mouse anti-LRRK2 C-terminus total antibody. […] Protein bands were acquired via near infrared fluorescent detection using the Odyssey CLx imaging system and quantified using the Image Studio software. […]

[2] = system: mouse embryonic fibroblast cells (MEFs); test: Cell morphology and attachment of MEFs; format: cell-based
[3] = system: basal mitophagy, wild type MEFs; test: mito-QC basal mitophagy in wild-type primary MEFs; format: cell-based, mouse; settings: 24 h, 30–300 nM GZD-824, GSK3357679A 100 nM positive control
Procedure: To assess mitophagy, wild type, G2019S knock in, and LRRK2 knock out primary mouse embryonic fibroblasts (MEFs) were derived, from time-mated pregnant females at E12.5 as previously described. Briefly, cells were plated on glass coverslips and incubated with DMEM (Gibco, 11960-044) supplemented with 10% FBS, 2 mM L-Glutamine (Gibco, 2503-081), 1% non-essential amino acids (Gibco, 11140-035), 1% Antibiotics (Penicillin/Streptomycin 100 U/ml penicillin and 100 µg/ml streptomycin; Gibco), and 150 µM β-Mercaptoethanol (Gibco, 21985-023) at 37°C under a humidified 5% CO2 atmosphere. […] GSK3357679A 100 nM (Ding et al., in prep) was used as a positive control. At the end of the treatment, MEFs were briefly washed twice in DPBS (Gibco, 14190-094), and fixed in 3.7% Paraformaldehyde pH 7.00 (Sigma, P6148), 200 mM HEPES, for 20 min. Cells were then washed two times with DMEM, 10 mM HEPES, and then incubated for 10 min with DMEM, 10 mM HEPES. […] Images were acquired using a Nikon Eclipse Ti-S fluorescence microscope with a 63× objective. Images were analyzed using the mito-QC counter as previously described. Experiments were performed in 3–4 independent experiments and data was analyzed with a one-way ANOVA followed by a Dunnett's multiple comparison test using the GraphPad Prism software (version 8.4.3 (686)).

Question: How did the “concentration giving maximal inhibition of Rab10 phosphorylation” value [1] turn out when `Cc1ccc(C(=O)Nc2ccc(CN3CCN(C)CC3)c(C(F)(F)F)c2)cc1C#Cc1cnc2[nH]ncc2c1` [GZD-824] was run?
Answer: 300 nM

Question: And the “concentration that impacted cell morphology and attachment” value [2]?
Answer: ≥ 10 μM

Question: What about the “stimulation of basal mitophagy” value [3] of the same molecule?
Answer: ~2 fold
